According to patent publication US20040209914A1, “Aromatic sulfone hydroxamic acids and their use as protease inhibitors” (priority 2000, published 2004):

What was measured:
[1] = test system: solid tumor cancers (colorectal, pancreatic, ovarian, and prostate); details: patients with advanced, rapidly progressive, treatment-refractory solid tumor cancers; cited from earlier work
Recombinant human MMP-13 = target: T1, Recombinant human MMP-13 (Homo sapiens, UniProt P45452); assay: biochemical; details: fluorogenic MCA-peptide substrate, pH 7.5, room temperature; read-out: MMP-13 IC50
T1 construct: made in house; host or cells: baculovirus / insect cells
Summary of the method: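 APMA-activated MMP (proenzyme purified on heparin agarose and chelating zinc columns) incubated at room temperature with 4 uM fluorogenic MCA-ProLeuGlyLeuDpaAlaArgNH2 substrate. Inhibition read as reduced fluorescence versus inhibitor concentration relative to a DMSO control, giving IC50.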

Recombinant human MMP-1 = target: T2, Recombinant human MMP-1 (Homo sapiens, UniProt P03956); assay: biochemical; details: fluorogenic MCA-peptide substrate, pH 7.5, room temperature
T2 construct: made in house; host or cells: transfected HT-1080 cells
T2 sequence (P03956 100-469): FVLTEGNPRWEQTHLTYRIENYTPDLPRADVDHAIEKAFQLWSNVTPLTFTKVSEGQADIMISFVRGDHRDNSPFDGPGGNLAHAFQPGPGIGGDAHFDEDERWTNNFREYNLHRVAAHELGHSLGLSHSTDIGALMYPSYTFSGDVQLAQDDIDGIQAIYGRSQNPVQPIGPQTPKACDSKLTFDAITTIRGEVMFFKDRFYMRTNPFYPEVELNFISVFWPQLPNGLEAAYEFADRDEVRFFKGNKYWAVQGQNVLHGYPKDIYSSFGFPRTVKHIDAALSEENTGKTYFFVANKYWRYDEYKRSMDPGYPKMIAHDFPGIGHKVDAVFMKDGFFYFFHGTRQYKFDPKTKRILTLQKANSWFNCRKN
Summary of the method: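 Recombinant human MMP-1 from transfected HT-1080 cells, APMA-activated and hydroxamate-column purified, was incubated at room temperature with 4 uM MCA-ProLeuGlyLeuDpaAlaArgNH2 fluorogenic substrate. Inhibition taken as fall in fluorescence versus inhibitor concentration, giving IC50.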

Recombinant human MMP-2 = target: T3, Recombinant human MMP-2 (Homo sapiens, UniProt P08253); assay: biochemical; details: fluorogenic MCA-peptide substrate, pH 7.5, room temperature; read-out: MMP-2 IC50
T3 construct: made in house
T3 sequence (P08253 110-660): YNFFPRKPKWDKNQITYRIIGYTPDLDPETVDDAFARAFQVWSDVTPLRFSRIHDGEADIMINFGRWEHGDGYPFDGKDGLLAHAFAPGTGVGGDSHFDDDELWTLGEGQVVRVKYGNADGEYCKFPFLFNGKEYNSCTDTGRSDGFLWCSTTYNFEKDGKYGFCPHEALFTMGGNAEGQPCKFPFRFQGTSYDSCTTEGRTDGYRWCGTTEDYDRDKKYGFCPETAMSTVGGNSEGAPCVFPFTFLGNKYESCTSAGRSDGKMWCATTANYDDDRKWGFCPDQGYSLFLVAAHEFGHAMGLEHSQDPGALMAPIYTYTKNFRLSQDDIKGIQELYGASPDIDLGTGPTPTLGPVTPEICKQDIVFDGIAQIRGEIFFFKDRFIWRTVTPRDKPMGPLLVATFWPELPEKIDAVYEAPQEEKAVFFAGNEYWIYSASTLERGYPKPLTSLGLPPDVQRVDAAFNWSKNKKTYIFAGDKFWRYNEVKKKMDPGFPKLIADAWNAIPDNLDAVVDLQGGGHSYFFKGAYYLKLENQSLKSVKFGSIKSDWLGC
Summary of the method: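 Activated (APMA or trypsin) recombinant human MMP-2, from transfected expressing cells, incubated at room temperature with 4 uM fluorogenic substrate MCA-Pro-Leu-Gly-Leu-Dpa-Ala-Arg-NH2 and hydroxamate inhibitor.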

| Structure (SMILES) | effect on cancer-specific antigens used as surrogate markers for biological activity [1] | IC50 (Recombinant human MMP-13) [µM] | IC50 (Recombinant human MMP-1) [µM] | IC50 (Recombinant human MMP-2) [µM] |
| --- | --- | --- | --- | --- |
| CNC(=O)[C@@H](NC(=O)[C@H](CC(C)C)[C@H](O)C(=O)NO)C(C)(C)C [Marimastat] | dose-related reduction in the rise of cancer-specific antigens |  |  |  |
| O=C(c1ccc(F)c(F)c1)C1CCN(c2ccc(S(=O)(=O)C3(C(=O)NO)CCOCC3)cc2)CC1 [Example 302] |  | 0.0019 | > 10 | 0.035 |
| COc1ccc(C2CCN(c3ccc(S(=O)(=O)C4(C(=O)NO)CCN(CC5CC5)CC4)cc3)CC2)cc1 [Example 268] |  | 0.0012 | > 10 | 0.005 |
| COCCc1sc(CC(=O)C2CCN(c3ccc(S(=O)(=O)C4(C(=O)NO)CCOCC4)cc3)CC2)nc1C [Example 374] |  | 0.0056 | > 10 | 0.97 |
| CCN1CCC(C(=O)NO)(S(=O)(=O)c2ccc(N3CCC(C(=O)c4ccc(CC5CCC5)cc4)CC3)cc2)CC1 [Example 232] |  | 0.0013 | > 10 | 0.624 |
| CCN1CCC(C(=O)NO)(S(=O)(=O)c2ccc(N3CCC(C(=O)c4ccc(CC(C)CO)cc4)CC3)cc2)CC1 (stereo not shown) [Example 235] |  | 0.0008 | > 10 | 0.118 |
| COCCN1CCC(C(=O)NO)(S(=O)(=O)c2ccc(N3CCC(C(=O)c4ccc(CC5CCCC5)cc4)CC3)cc2)CC1 [Example 202] |  | 0.0004 | > 10 | 1.02 |
| Cc1ccc(Cl)cc1N1CCN(C(=O)C2CCN(c3ccc(S(=O)(=O)C4(C(=O)NO)CCOCC4)cc3)CC2)CC1 [Example 6] |  | 0.0181 | > 10 | > 10 |
| CCN1CCC(C(=O)NO)(S(=O)(=O)c2ccc(N3CCC(C(=O)c4ccc(CCC5CCCC5)cc4)CC3)cc2)CC1 [Example 237] |  | 0.0021 | > 10 | 1.91 |
| O=C(C1CCN(c2ccc(S(=O)(=O)C3(C(=O)NO)CCOCC3)cc2)CC1)N1CCN(c2ccccc2Cl)CC1 [Example 4] |  | 0.0156 | > 10 | 2.9 |
| CCCc1ccc(C(=O)C2CCN(c3ccc(S(=O)(=O)C4(C(=O)NO)CCN(CC)CC4)cc3)CC2)cc1 [Example 170] |  | 0.0013 | > 10 | 0.134 |
| COc1ccc(C(=O)C2CCN(c3ccc(S(=O)(=O)C4(C(=O)NO)CCN(CC5CC5)CC4)cc3)CC2)cc1 [Example 188] |  | 0.002 | > 10 | 0.25 |
